Test results published in PubChem BioAssay (NCI).
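96-well plates; 48 h exposure; 5 concentrations. Endpoints by linear interpolation between flanking doses. Not reached: highest tested concentration assigned. The concentration for full growth arrest is given as TGI.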

Key:
Assay in all cases: NCI anticancer screen, dose series, 48 h
786-0 renal = system: 786-0 renal
A498 renal = system: A498 renal
A549 NSCLC = system: A549 NSCLC
ACHN renal = system: ACHN renal
BT-549 breast = system: BT-549 breast
CCRF-CEM leukemia = system: CCRF-CEM leukemia
COLO 205 colon = system: COLO 205 colon
DU-145 prostate = system: DU-145 prostate
HCT-116 colon = system: HCT-116 colon
HCT-15 colon = system: HCT-15 colon
HL-60(TB) leukemia = system: HL-60(TB) leukemia
HOP-62 NSCLC = system: HOP-62 NSCLC
HOP-92 NSCLC = system: HOP-92 NSCLC
HS 578T breast = system: HS 578T breast
HT29 colon = system: HT29 colon
IGROV1 ovarian = system: IGROV1 ovarian
K-562 leukemia = system: K-562 leukemia
KM12 colon = system: KM12 colon
LOX IMVI melanoma = system: LOX IMVI melanoma
M14 melanoma = system: M14 melanoma
MALME-3M melanoma = system: MALME-3M melanoma
MCF7 breast = system: MCF7 breast
MDA-MB-231 breast = system: MDA-MB-231 breast
MDA-MB-435 = system: MDA-MB-435
MDA-N = system: MDA-N
MOLT-4 leukemia = system: MOLT-4 leukemia
NCI-H226 lung = system: NCI-H226 lung
NCI-H23 lung = system: NCI-H23 lung
NCI-H460 lung = system: NCI-H460 lung
NCI-H522 lung = system: NCI-H522 lung
NCI/ADR-RES ovarian = system: NCI/ADR-RES ovarian
OVCAR-3 ovarian = system: OVCAR-3 ovarian
OVCAR-4 ovarian = system: OVCAR-4 ovarian
OVCAR-5 ovarian = system: OVCAR-5 ovarian
OVCAR-8 ovarian = system: OVCAR-8 ovarian
PC-3 prostate = system: PC-3 prostate
RPMI-8226 leukemia = system: RPMI-8226 leukemia
RXF 393 renal = system: RXF 393 renal
SF-268 CNS = system: SF-268 CNS
SF-295 CNS = system: SF-295 CNS
SF-539 CNS = system: SF-539 CNS
SK-MEL-2 melanoma = system: SK-MEL-2 melanoma
SK-MEL-28 melanoma = system: SK-MEL-28 melanoma
SK-MEL-5 melanoma = system: SK-MEL-5 melanoma
SK-OV-3 ovarian = system: SK-OV-3 ovarian
SN12C renal = system: SN12C renal
SNB-19 CNS = system: SNB-19 CNS
SNB-75 CNS = system: SNB-75 CNS
SR leukemia = system: SR leukemia
SW-620 colon = system: SW-620 colon
T-47D breast = system: T-47D breast
TK-10 renal = system: TK-10 renal
U251 CNS = system: U251 CNS
UACC-257 melanoma = system: UACC-257 melanoma
UACC-62 melanoma = system: UACC-62 melanoma
UO-31 renal = system: UO-31 renal
CAKI-1 renal = system: CAKI-1 renal
DLD-1 colon = system: DLD-1 colon
DMS 273 small cell lung = system: DMS 273 small cell lung
EKVX NSCLC = system: EKVX NSCLC
HCC-2998 colon = system: HCC-2998 colon
KM20L2 colon = system: KM20L2 colon
LXFL 529 NSCLC = system: LXFL 529 NSCLC
M19-MEL melanoma = system: M19-MEL melanoma

Q: Which TGI (786-0 renal) does the source give for `O=C1NC(=O)C(C(CC(=O)c2ccc([N+](=O)[O-])cc2)c2ccccc2)C(=O)N1` (stereo unspecified) here?
A: Its TGI is greater than 100 µM.

Q: And the TGI (A498 renal)?
A: Its TGI is greater than 100 µM.

Q: And the TGI (A549 NSCLC)?
A: Its TGI is greater than 100 µM.

Q: And the TGI (ACHN renal)?
A: The TGI was greater than 100 µM.

Q: And the TGI (BT-549 breast)?
A: The TGI was greater than 100 µM.

Q: What about the TGI (CCRF-CEM leukemia) of the same molecule?
A: Its TGI is greater than 100 µM.

Q: What about the TGI (COLO 205 colon) of the same molecule?
A: The TGI was greater than 100 µM.

Q: And the TGI (DU-145 prostate)?
A: Its TGI is greater than 100 µM.

Q: And the TGI (HCT-116 colon)?
A: The TGI was 28 µM.

Q: What about the TGI (HCT-15 colon) of the same molecule?
A: The TGI was greater than 100 µM.

Q: And the TGI (HL-60(TB) leukemia)?
A: The TGI was greater than 100 µM.

Q: What about the TGI (HOP-62 NSCLC) of the same molecule?
A: Its TGI is greater than 100 µM.

Q: And the TGI (HOP-92 NSCLC)?
A: The TGI was greater than 100 µM.

Q: And the TGI (HS 578T breast)?
A: The TGI was 31.7 µM.

Q: And the TGI (HT29 colon)?
A: Its TGI is greater than 100 µM.

Q: What about the TGI (IGROV1 ovarian) of the same molecule?
A: Its TGI is greater than 100 µM.

Q: And the TGI (K-562 leukemia)?
A: The TGI was greater than 100 µM.

Q: What about the TGI (KM12 colon) of the same molecule?
A: Its TGI is 30.4 µM.

Q: And the TGI (LOX IMVI melanoma)?
A: The TGI was 38.7 µM.

Q: And the TGI (M14 melanoma)?
A: Its TGI is greater than 100 µM.

Q: And the TGI (MALME-3M melanoma)?
A: The TGI was 42.9 µM.

Q: And the TGI (MCF7 breast)?
A: Its TGI is 27 µM.

Q: And the TGI (MDA-MB-231 breast)?
A: The TGI was greater than 100 µM.

Q: What about the TGI (MDA-MB-435) of the same molecule?
A: Its TGI is greater than 100 µM.

Q: And the TGI (MDA-N)?
A: The TGI was greater than 100 µM.

Q: What about the TGI (MOLT-4 leukemia) of the same molecule?
A: Its TGI is greater than 100 µM.

Q: And the TGI (NCI-H226 lung)?
A: The TGI was greater than 100 µM.

Q: What about the TGI (NCI-H23 lung) of the same molecule?
A: The TGI was 95.1 µM.

Q: And the TGI (NCI-H460 lung)?
A: Its TGI is greater than 100 µM.

Q: And the TGI (NCI-H522 lung)?
A: The TGI was greater than 100 µM.

Q: What about the TGI (NCI/ADR-RES ovarian) of the same molecule?
A: The TGI was greater than 100 µM.

Q: And the TGI (OVCAR-3 ovarian)?
A: The TGI was greater than 100 µM.

Q: And the TGI (OVCAR-4 ovarian)?
A: The TGI was greater than 100 µM.

Q: And the TGI (OVCAR-5 ovarian)?
A: The TGI was greater than 100 µM.

Q: And the TGI (OVCAR-8 ovarian)?
A: The TGI was greater than 100 µM.

Q: What about the TGI (PC-3 prostate) of the same molecule?
A: The TGI was greater than 100 µM.

Q: What about the TGI (RPMI-8226 leukemia) of the same molecule?
A: Its TGI is greater than 100 µM.

Q: And the TGI (RXF 393 renal)?
A: Its TGI is 55.8 µM.

Q: What about the TGI (SF-268 CNS) of the same molecule?
A: Its TGI is greater than 100 µM.

Q: And the TGI (SF-295 CNS)?
A: The TGI was 54.9 µM.

Q: And the TGI (SF-539 CNS)?
A: The TGI was greater than 100 µM.

Q: And the TGI (SK-MEL-2 melanoma)?
A: Its TGI is greater than 100 µM.

Q: What about the TGI (SK-MEL-28 melanoma) of the same molecule?
A: The TGI was greater than 100 µM.

Q: What about the TGI (SK-MEL-5 melanoma) of the same molecule?
A: Its TGI is greater than 100 µM.

Q: And the TGI (SK-OV-3 ovarian)?
A: The TGI was greater than 100 µM.

Q: And the TGI (SN12C renal)?
A: The TGI was greater than 100 µM.

Q: What about the TGI (SNB-19 CNS) of the same molecule?
A: Its TGI is greater than 100 µM.

Q: And the TGI (SNB-75 CNS)?
A: The TGI was greater than 100 µM.

Q: What about the TGI (SR leukemia) of the same molecule?
A: Its TGI is greater than 100 µM.

Q: And the TGI (SW-620 colon)?
A: The TGI was greater than 100 µM.

Q: What about the TGI (T-47D breast) of the same molecule?
A: Its TGI is 67 µM.

Q: What about the TGI (TK-10 renal) of the same molecule?
A: Its TGI is 7.73 µM.

Q: What about the TGI (U251 CNS) of the same molecule?
A: The TGI was greater than 100 µM.

Q: And the TGI (UACC-257 melanoma)?
A: Its TGI is greater than 100 µM.

Q: And the TGI (UACC-62 melanoma)?
A: The TGI was greater than 100 µM.

Q: And the TGI (UO-31 renal)?
A: Its TGI is greater than 100 µM.

Q: With `Cc1ccc(C(N)=O)cc1N=NN(C)C` as the molecule, how does the TGI (786-0 renal) read?
A: The TGI was greater than 100 µM.

Q: What about the TGI (A549 NSCLC) of the same molecule?
A: The TGI was greater than 100 µM.

Q: What about the TGI (ACHN renal) of the same molecule?
A: Its TGI is greater than 100 µM.

Q: And the TGI (CAKI-1 renal)?
A: Its TGI is greater than 100 µM.

Q: What about the TGI (COLO 205 colon) of the same molecule?
A: The TGI was greater than 100 µM.

Q: What about the TGI (DLD-1 colon) of the same molecule?
A: The TGI was greater than 100 µM.

Q: And the TGI (DMS 273 small cell lung)?
A: The TGI was greater than 100 µM.

Q: And the TGI (EKVX NSCLC)?
A: Its TGI is greater than 100 µM.

Q: What about the TGI (HCC-2998 colon) of the same molecule?
A: Its TGI is greater than 100 µM.

Q: What about the TGI (HCT-15 colon) of the same molecule?
A: The TGI was greater than 100 µM.

Q: What about the TGI (HOP-62 NSCLC) of the same molecule?
A: Its TGI is greater than 100 µM.

Q: And the TGI (HOP-92 NSCLC)?
A: Its TGI is greater than 100 µM.

Q: What about the TGI (HT29 colon) of the same molecule?
A: Its TGI is greater than 100 µM.

Q: What about the TGI (IGROV1 ovarian) of the same molecule?
A: The TGI was greater than 100 µM.

Q: What about the TGI (KM12 colon) of the same molecule?
A: The TGI was greater than 100 µM.

Q: And the TGI (KM20L2 colon)?
A: Its TGI is greater than 100 µM.

Q: What about the TGI (LOX IMVI melanoma) of the same molecule?
A: The TGI was greater than 100 µM.

Q: And the TGI (LXFL 529 NSCLC)?
A: Its TGI is greater than 100 µM.

Q: And the TGI (M14 melanoma)?
A: Its TGI is greater than 100 µM.

Q: And the TGI (M19-MEL melanoma)?
A: The TGI was greater than 100 µM.

Q: What about the TGI (NCI-H23 lung) of the same molecule?
A: The TGI was greater than 100 µM.

Q: What about the TGI (NCI-H460 lung) of the same molecule?
A: Its TGI is greater than 100 µM.

Q: And the TGI (NCI-H522 lung)?
A: The TGI was greater than 100 µM.

Q: And the TGI (OVCAR-3 ovarian)?
A: The TGI was greater than 100 µM.

Q: And the TGI (OVCAR-4 ovarian)?
A: Its TGI is greater than 100 µM.

Q: And the TGI (OVCAR-8 ovarian)?
A: The TGI was greater than 100 µM.

Q: And the TGI (SF-268 CNS)?
A: Its TGI is greater than 100 µM.

Q: And the TGI (SF-295 CNS)?
A: Its TGI is greater than 100 µM.

Q: What about the TGI (SK-MEL-2 melanoma) of the same molecule?
A: Its TGI is greater than 100 µM.

Q: And the TGI (SK-MEL-28 melanoma)?
A: Its TGI is greater than 100 µM.

Q: What about the TGI (SK-MEL-5 melanoma) of the same molecule?
A: The TGI was greater than 100 µM.

Q: What about the TGI (SK-OV-3 ovarian) of the same molecule?
A: The TGI was greater than 100 µM.

Q: What about the TGI (SN12C renal) of the same molecule?
A: Its TGI is greater than 100 µM.

Q: What about the TGI (SNB-19 CNS) of the same molecule?
A: Its TGI is greater than 100 µM.

Q: And the TGI (SW-620 colon)?
A: Its TGI is greater than 100 µM.

Q: And the TGI (TK-10 renal)?
A: Its TGI is greater than 100 µM.

Q: And the TGI (U251 CNS)?
A: The TGI was greater than 100 µM.

Q: What about the TGI (UACC-257 melanoma) of the same molecule?
A: Its TGI is greater than 100 µM.

Q: And the TGI (UACC-62 melanoma)?
A: Its TGI is greater than 100 µM.

Q: And the TGI (UO-31 renal)?
A: Its TGI is greater than 100 µM.
